Values quoted from earlier work in patent publication US7115565B2, “Chemotherapeutic microemulsion compositions of paclitaxel with improved oral bioavailability” (Pharmacia & Upjohn Company, priority 2001, dated 2006).

Conditions: reported in the background

- oral bioavailability: very low
Structure (SMILES): CC(=O)O[C@H]1C(=O)[C@@]2(C)[C@H]([C@H](OC(=O)c3ccccc3)[C@]3(O)C[C@H](OC(=O)[C@H](O)[C@@H](NC(=O)c4ccccc4)c4ccccc4)C(C)=C1C3(C)C)[C@]1(OC(C)=O)CO[C@@H]1C[C@@H]2O [Paclitaxel]
